Results filed as inconclusive are left out. Activity calls are given as the source filed them.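 The calls were made as follows: active = compounds with IC50 under 50 µM in each of two repeat runs and on average; inconclusive = just one of the two runs above 50 µM; inactive = both runs and average above 50 µM.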
How the values were obtained:
[1] = inhibitors of zVAD-triggered L929 necroptosis, potency, dose response, L929 cells, duplicate IC50 (AID 463181); settings: L929 zVAD necroptosis rescue, ATP luminescence, 24 h; inhibition of cell death; at 50 µM; stronger effect = higher value
[2] = test system: L929 zVAD necroptosis rescue, ATP luminescence, 24 h; assay: as above

Row | SMILES | inhibition [1] | IC50 [2]
1 | CN(C)S(=O)(=O)c1ccc(Cl)c(NC(=O)CSc2nnnn2-c2ccc(O)cc2)c1 | 78.6% | 17.7 µM
2 | CC(=O)Nc1ccc(Sc2ncccc2C(=O)Nc2ccc(OC(F)(F)F)cc2)cn1 | 5.08% | > 20 µM (inactive)
3 | CCc1cccc2c(C(=O)COC(=O)c3ccc(O)cc3)c[nH]c12 | 1.41% | > 20 µM (inactive)
4 | O=C(Nc1nccs1)c1ccc(S(=O)(=O)NCc2cccs2)cc1 | 2.91% | > 20 µM (inactive)
5 | Cc1ccc(NC(=O)CSc2nnnn2-c2ccc3c(c2)OCO3)cc1C | 0.243% | > 20 µM (inactive)
6 | COc1cc(N=Cc2c(O)[nH]c3ccccc23)cc(OC)c1OC | 89.1% | 7.09 µM
7 | Nc1nnnn1/N=C/C(Br)=C/c1ccccc1 | 0.0265% | > 20 µM (inactive)
8 | Cc1ccc(C2CC(=O)NC(SCC(=O)Nc3nccs3)=C2C#N)cc1 (stereo not drawn) | 80.8% | 0.251 µM
9 | O=C1Nc2ccccc2/C1=C/c1cnc[nH]1 | 85.9% | 9.67 µM
10 | COc1cc(NC(=O)c2cnc(N)s2)cc(C(=O)Nc2cccc(C(F)(F)F)c2)c1 | 75.8% | 17.4 µM
11 | Brc1ccc(COn2ccnc2)cc1 | 79.8% | 16.8 µM
12 | CCN1CCN(Cc2ccc(NC(=O)c3ccc(C)c(NC(=O)c4nccnc4N)c3)cc2C(F)(F)F)CC1 | 74% | 1.46 µM
13 | Cn1nnnc1SCc1ccc(C(=O)Nc2nccs2)cc1 | 76.4% | 16.9 µM
14 | COc1ccc(/C=N/Nc2ccccn2)cc1OC | 80.7% | 16.3 µM
15 | Cc1cc(N/N=C/c2ccncc2)nc2ccccc12 | 81.6% | 18.5 µM
16 | CCN1CCN(Cc2ccc(NC(=O)c3ccc(C)c(NC(=O)c4csc(-c5ccncc5)n4)c3)cc2C(F)(F)F)CC1 | 90.1% | 5.9 µM
17 | Cc1cnc(NC(=O)c2cc3c(s2)CCCC3)s1 | 10.4% | > 20 µM (inactive)
18 | Cc1[nH]c2ccccc2c1/C=N/Nc1ccccn1 | 92.7% | 15 µM
19 | O=C(/C=C/c1cccc(F)c1)Nc1nccs1 | 1.43% | > 20 µM (inactive)
20 | CCN(CC)CCn1c2ccccc2c2cnc(N)c(C#N)c21 | 68.7% | 17.7 µM
21 | COc1ccc(/C=C2\N=C(SC)NC2=O)cc1 | 80.6% | 5.22 µM
22 | Cc1cnc(NC(=O)c2ccc(OCC3CCCO3)cc2)s1 (stereo not drawn) | 74.2% | 8.49 µM

Row | SMILES | inhibition [1] | IC50 [2]
23 | O=C(C1=NNCC1c1ccccc1)C1CO1 (stereo not drawn) | 87.3% | 15.8 µM
24 | Cc1ccc(/C=N\Nc2nc3ccc(Cl)cc3[nH]2)o1 | 0.613% | > 20 µM (inactive)
25 | C[C@@H]1C[C@@H]2O[C@H]2/C=C\C=C\C(=O)Cc2c(Cl)c(O)cc(O)c2C(=O)O1 | 120% | 0.372 µM
26 | COc1ccc(/C=N/Nc2nc3ccccc3s2)cc1O | 72.2% | 17.3 µM
27 | OCCCNc1nccc(-c2cc(Nc3cccc(Cl)c3)ncn2)n1 | 82.7% | 10.7 µM
28 | Cc1ccc(-c2nc(Nc3ccccc3)n[nH]2)cc1 | 0.11% | > 20 µM (inactive)
29 | O=C(Nc1cccc(Cl)c1)N1N=CCC1c1ccccc1 (stereo not drawn) | 81.4% | 16.9 µM
30 | c1ccc2c3c([nH]c2c1)-c1[nH]ncc1CC3 | 78.5% | 0.194 µM
31 | C[C@H]1C[C@@H](C)C(=O)[C@@H]([C@H](O)CC2CC(=O)NC(=O)C2)C1 | 112% | 0.986 µM
32 | O=C1C=CC(O)(c2cc(=O)c3c(O)cc(O)cc3o2)C=C1 | 78.5% | 10.1 µM
33 | O=C(C1=NNCC1c1ccc(Cl)cc1)C1CO1 (stereo not drawn) | 103% | 3.69 µM
34 | O=C(CSc1nnnn1-c1ccc(O)cc1)Nc1cccc(S(=O)(=O)N2CCCC2)c1 | 86.9% | 5.89 µM
35 | CCN1CCN(Cc2ccc(NC(=O)c3cc(NC(=O)c4cnn(-c5ccccc5)c4N)cc(OC)c3)cc2C(F)(F)F)CC1 | 80.3% | 9.96 µM
36 | O=C(CCl)Nc1cc(SCC(O)CO)cc([N+](=O)[O-])c1 (stereo not drawn) | 94.4% | 14.4 µM
37 | CC(=O)Nc1ccc(/C=N/Nc2nc3ccccc3s2)cc1 | 70.2% | 18.8 µM
38 | O=C(Nc1nccs1)c1ccc(CSc2nnnn2-c2ccccc2)cc1 | 0.93% | > 20 µM (inactive)
39 | Cc1noc(C)c1/C=N/Nc1ccccn1 | 81.6% | 16.9 µM
40 | COc1ccc(-n2cnnc2SCC(=O)Nc2cc(C(C)(C)C)nn2-c2ccccc2)cc1 | 70% | 4.77 µM
41 | Cc1ccc2c(c1)C(C)CC(C)(C)N2C(=O)NC1CCCCC1 (stereo not drawn) | 1.73% | > 20 µM (inactive)
42 | Cn1c(N)c(C(=O)N/N=C/c2ccccc2)sc1=S | 76.3% | 17.3 µM
43 | Cc1ccc2[nH]c3c(c2c1)CCc1cn[nH]c1-3 | 82.2% | 1.29 µM
44 | Clc1ccc(COn2ccnc2)cc1Cl | 82.6% | 10.9 µM

Row | SMILES | inhibition [1] | IC50 [2]
45 | Nc1ccccc1Nc1cc(-c2ccccc2)[nH]n1 | 90.9% | 2.78 µM
46 | CCN1C(=O)/C(=C/c2ccc(C)s2)NC1=S | 88.7% | 2.05 µM
47 | COc1cc(/C=N/Nc2nc3ccccc3s2)ccc1OC(=O)c1ccccc1F | 1.24% | > 20 µM (inactive)
48 | COc1ccc(N=Cc2c(O)[nH]c3ccccc23)cc1OC | 81.8% | 6.83 µM
49 | COC(=O)c1ccn(Cc2ccccc2Cl)n1 | 81.2% | 16.3 µM
50 | CN(CC1CCCO1)S(=O)(=O)c1ccc(C(=O)Nc2nccs2)cc1 (stereo not drawn) | 97.5% | 7.39 µM
51 | O=C(CSc1nnc(NC2CCCCC2)s1)Nc1ccc2c(c1)C(=O)c1ccccc1C2=O | 0.754% | > 20 µM (inactive)
52 | C=C1C(=O)[C@@]23[C@H](O)C[C@@H]4C(C)(C)CC[C@H](O)[C@@]4(C)[C@@H]2CC[C@@H]1[C@H]3O | 144% | 10.1 µM
53 | CCCc1cc(C(=O)Nc2nccs2)cs1 | 76.6% | 9.59 µM
54 | COc1cc(/C=N/Nc2ccc(C(F)(F)F)cn2)ccc1O | 82.3% | 16.7 µM
55 | O=C(CSc1nnnn1-c1ccc2c(c1)OCCO2)Nc1nc2c(s1)CCCC2 | 0.775% | > 20 µM (inactive)
56 | Cn1nc(C(C)(C)C)cc1NC(=O)Nc1cc(Cl)cc(Cl)c1 | 2.91% | > 20 µM (inactive)
57 | Oc1ccc(/C=N/Nc2ccc(C(F)(F)F)cn2)cc1O | 87.6% | 4.19 µM
58 | CCN(CC)Cc1cc2[nH]c3c4ccc(Cl)cc4ncc3c2cc1OC | 0.811% | > 20 µM (inactive)
59 | Cc1cn(-c2cc(C(=O)Nc3ccc(C)c(NC(=O)C(=O)c4c[nH]c5ccccc45)c3)cc(C(F)(F)F)c2)cn1 | 1.07% | > 20 µM (inactive)
60 | COc1cc(/C=N/Nc2ccccn2)ccc1O | 91.1% | 14.9 µM
61 | Clc1ccc2[nH]c3c(c2c1)CCc1cn[nH]c1-3 | 103% | 2.63 µM
62 | Cc1ccc(C(=O)Nc2cccc(C(F)(F)F)c2)cc1Nc1cnccn1 | 74.3% | 10.8 µM
63 | O=C(OCn1ncc(Br)c(Br)c1=O)c1ccc(F)cc1 | 8.06% | > 20 µM (inactive)
64 | CC(=O)OC[C@]12CCC(C)=C[C@H]1O[C@@H]1[C@H](O)[C@@H](OC(C)=O)[C@@]2(C)[C@]12CO2 | 114% | < 0.039 µM

From PubChem BioAssay AID463181 (University of Pittsburgh Molecular Library Screening Center, 2010)
